Values of other authors, collected in patent publication US9809589B2, “Crystal form of compound used as mineralocorticoid receptor antagonist and preparation method therefor” (KBP BIOSCIENCES CO., LTD., priority 2012, dated 2017).

Legend:
[1] = target: T1, glucocorticoid receptor (Homo sapiens, UniProt P04150); conditions: relative to mineralocorticoid receptor; WO2012022121; cited from earlier work
T1 sequence (P04150 1-777): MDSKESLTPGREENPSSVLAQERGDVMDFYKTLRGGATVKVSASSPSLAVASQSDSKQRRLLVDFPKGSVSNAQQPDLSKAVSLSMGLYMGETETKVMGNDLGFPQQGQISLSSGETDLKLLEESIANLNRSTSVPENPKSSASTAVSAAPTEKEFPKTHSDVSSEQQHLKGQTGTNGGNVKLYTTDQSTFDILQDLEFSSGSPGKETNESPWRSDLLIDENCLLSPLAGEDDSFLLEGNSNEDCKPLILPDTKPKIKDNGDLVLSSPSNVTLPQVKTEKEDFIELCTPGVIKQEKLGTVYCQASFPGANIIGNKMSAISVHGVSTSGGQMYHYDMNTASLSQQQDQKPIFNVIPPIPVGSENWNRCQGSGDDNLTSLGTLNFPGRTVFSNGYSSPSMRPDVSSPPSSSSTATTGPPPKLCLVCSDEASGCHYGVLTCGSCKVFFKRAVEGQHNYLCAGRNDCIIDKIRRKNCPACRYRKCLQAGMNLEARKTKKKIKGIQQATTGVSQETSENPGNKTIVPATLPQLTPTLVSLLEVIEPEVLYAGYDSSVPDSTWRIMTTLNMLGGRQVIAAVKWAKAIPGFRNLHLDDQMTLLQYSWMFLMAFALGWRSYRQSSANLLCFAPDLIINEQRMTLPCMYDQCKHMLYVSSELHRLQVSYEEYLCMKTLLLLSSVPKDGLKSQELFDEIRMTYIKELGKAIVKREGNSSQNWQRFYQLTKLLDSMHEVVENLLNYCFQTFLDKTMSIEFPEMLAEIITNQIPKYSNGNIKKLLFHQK

[2] = target: T2, mineralocorticoid receptor (Homo sapiens, UniProt P08235); conditions: as disclosed in WO2012022121; cited from earlier work
T2 sequence (P08235 1-984): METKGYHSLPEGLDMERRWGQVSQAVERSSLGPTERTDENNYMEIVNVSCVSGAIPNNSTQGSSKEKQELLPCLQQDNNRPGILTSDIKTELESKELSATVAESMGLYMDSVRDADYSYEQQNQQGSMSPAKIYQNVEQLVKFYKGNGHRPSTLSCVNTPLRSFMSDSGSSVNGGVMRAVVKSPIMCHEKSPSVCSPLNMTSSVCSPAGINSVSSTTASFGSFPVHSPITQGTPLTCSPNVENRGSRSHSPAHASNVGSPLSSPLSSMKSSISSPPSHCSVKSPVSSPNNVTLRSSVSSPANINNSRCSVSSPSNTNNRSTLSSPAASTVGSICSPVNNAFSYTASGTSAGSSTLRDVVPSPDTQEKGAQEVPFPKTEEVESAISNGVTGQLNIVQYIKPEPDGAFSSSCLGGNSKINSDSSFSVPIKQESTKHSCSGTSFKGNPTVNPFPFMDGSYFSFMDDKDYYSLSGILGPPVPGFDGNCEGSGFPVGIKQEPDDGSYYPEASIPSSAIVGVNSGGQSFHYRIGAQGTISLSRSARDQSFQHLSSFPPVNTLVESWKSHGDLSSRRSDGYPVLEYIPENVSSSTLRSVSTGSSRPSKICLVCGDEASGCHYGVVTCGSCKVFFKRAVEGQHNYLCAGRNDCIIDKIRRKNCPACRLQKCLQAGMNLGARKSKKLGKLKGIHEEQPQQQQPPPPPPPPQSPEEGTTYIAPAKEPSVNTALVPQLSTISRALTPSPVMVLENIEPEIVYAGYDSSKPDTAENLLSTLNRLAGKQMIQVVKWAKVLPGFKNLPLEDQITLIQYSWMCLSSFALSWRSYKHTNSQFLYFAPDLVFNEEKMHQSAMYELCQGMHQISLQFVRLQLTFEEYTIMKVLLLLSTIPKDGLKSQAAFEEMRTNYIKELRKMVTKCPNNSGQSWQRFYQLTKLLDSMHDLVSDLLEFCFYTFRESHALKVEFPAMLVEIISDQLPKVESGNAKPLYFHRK

[3] = target: T3, androgen receptor (Homo sapiens, UniProt P10275); conditions: relative to mineralocorticoid receptor; WO2012022121; cited from earlier work
T3 sequence (P10275 1-920): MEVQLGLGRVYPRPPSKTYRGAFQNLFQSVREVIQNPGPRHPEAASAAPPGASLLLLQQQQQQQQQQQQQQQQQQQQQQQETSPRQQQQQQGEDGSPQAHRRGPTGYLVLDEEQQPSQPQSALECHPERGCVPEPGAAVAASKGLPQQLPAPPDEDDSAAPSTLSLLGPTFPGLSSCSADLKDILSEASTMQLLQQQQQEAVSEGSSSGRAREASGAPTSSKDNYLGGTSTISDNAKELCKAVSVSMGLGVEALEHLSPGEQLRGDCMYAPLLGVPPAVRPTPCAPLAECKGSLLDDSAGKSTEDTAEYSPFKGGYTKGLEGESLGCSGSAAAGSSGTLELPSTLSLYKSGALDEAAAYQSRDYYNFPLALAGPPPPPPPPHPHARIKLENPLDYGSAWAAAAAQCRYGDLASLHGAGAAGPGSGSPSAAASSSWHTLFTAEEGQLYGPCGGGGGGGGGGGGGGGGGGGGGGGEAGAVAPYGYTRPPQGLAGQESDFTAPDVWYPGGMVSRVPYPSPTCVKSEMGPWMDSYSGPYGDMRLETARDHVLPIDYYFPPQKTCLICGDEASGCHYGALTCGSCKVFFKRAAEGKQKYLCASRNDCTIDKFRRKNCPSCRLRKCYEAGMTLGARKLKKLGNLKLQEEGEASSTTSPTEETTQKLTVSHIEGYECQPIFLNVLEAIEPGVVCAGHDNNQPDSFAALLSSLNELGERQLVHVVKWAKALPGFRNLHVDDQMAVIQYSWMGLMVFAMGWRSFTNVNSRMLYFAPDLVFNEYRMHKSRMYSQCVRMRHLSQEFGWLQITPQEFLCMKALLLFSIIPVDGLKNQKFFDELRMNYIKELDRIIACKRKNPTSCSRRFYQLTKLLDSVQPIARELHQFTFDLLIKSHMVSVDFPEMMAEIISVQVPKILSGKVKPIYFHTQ

For `N#Cc1ccc(N2N=C3c4ccc(C(=O)N5CCC(O)CC5)nc4CC[C@@H]3[C@@H]2C2CCCC2)cc1Cl` [compound represented by Formula (1), 2-chloro-4-[(3S,3aR)-3-cyclopentyl-7-(4-hydroxypiperidin-1-carbonyl)-3,3a,4,5-tetrahydro-2H-pyrazolo[3,4-f]quinolin-2-yl]benzonitrile], the “Affinity to the glucocorticoid receptor” value [1] is given as “lower affinity”, the “Binding to the mineralocorticoid receptor” value [2] is given as “selectively bind to the mineralocorticoid receptor” and the “Affinity to the androgen receptor” value [3] is given as “lower affinity”.
